Measured values as given in the supplement of paper PMC10307832.

How the values were obtained:
Experiment in all cases: relative viability (nuclei count vs DMSO), 5 days (fraction); higher = more cells survive
Adavosertib + Linsitinib = compound: C=CCn1c(=O)c2cnc(Nc3ccc(N4CCN(C)CC4)cc3)nc2n1-c1cccc(C(C)(C)O)n1 [Adavosertib] + C[C@]1(O)C[C@@H](c2nc(-c3ccc4ccc(-c5ccccc5)nc4c3)c3c(N)nccn32)C1 [Linsitinib] (partner 1 µM)
Summary of the method: (§1)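 Lung cancer cell lines, seeded in 1536-well plates, were treated the following day by pin tool with a single drug or with five library-drug doses (not always all listed) in √10 steps on top of a fixed anchor-drug dose. Cells were fixed and nuclei stained in one step after 5 days, and nuclei were counted. Relative viability is the nuclei count for treated wells divided by that for vehicle wells, reported as medians of duplicate plates.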

Adavosertib + OSI-027 = compound: C=CCn1c(=O)c2cnc(Nc3ccc(N4CCN(C)CC4)cc3)nc2n1-c1cccc(C(C)(C)O)n1 [Adavosertib] + COc1cccc2cc(-c3nc([C@H]4CC[C@H](C(=O)O)CC4)n4ncnc(N)c34)[nH]c12 [OSI-027] (partner 0.5 µM)
Summary of the method: as §1

Adavosertib + Pictilisib = compound: C=CCn1c(=O)c2cnc(Nc3ccc(N4CCN(C)CC4)cc3)nc2n1-c1cccc(C(C)(C)O)n1 [Adavosertib] + CS(=O)(=O)N1CCN(Cc2cc3nc(-c4cccc5[nH]ncc45)nc(N4CCOCC4)c3s2)CC1 [Pictilisib] (partner 1 µM)
Summary of the method: as §1

Adavosertib + Crizotinib = compound: C=CCn1c(=O)c2cnc(Nc3ccc(N4CCN(C)CC4)cc3)nc2n1-c1cccc(C(C)(C)O)n1 [Adavosertib] + C[C@@H](Oc1cc(-c2cnn(C3CCNCC3)c2)cnc1N)c1c(Cl)ccc(F)c1Cl [Crizotinib] (partner 1 µM)
Summary of the method: as §1

Adavosertib + Tozasertib = compound: C=CCn1c(=O)c2cnc(Nc3ccc(N4CCN(C)CC4)cc3)nc2n1-c1cccc(C(C)(C)O)n1 [Adavosertib] + Cc1cc(Nc2cc(N3CCN(C)CC3)nc(Sc3ccc(NC(=O)C4CC4)cc3)n2)n[nH]1 [Tozasertib] (partner 0.1 µM)
Summary of the method: as §1

Cell Line | relative viability (Adavosertib + Linsitinib; first compound 0.01 µM) | relative viability (Adavosertib + Linsitinib; first compound 0.03162 µM) | relative viability (Adavosertib + Linsitinib; first compound 0.1 µM) | relative viability (Adavosertib + Linsitinib; first compound 0.3162 µM) | relative viability (Adavosertib + OSI-027; first compound 0.01 µM) | relative viability (Adavosertib + OSI-027; first compound 0.03162 µM) | relative viability (Adavosertib + OSI-027; first compound 0.1 µM) | relative viability (Adavosertib + OSI-027; first compound 0.3162 µM) | relative viability (Adavosertib + Pictilisib; first compound 0.01 µM) | relative viability (Adavosertib + Pictilisib; first compound 0.03162 µM) | relative viability (Adavosertib + Pictilisib; first compound 0.1 µM) | relative viability (Adavosertib + Pictilisib; first compound 0.3162 µM) | relative viability (Adavosertib + Crizotinib; first compound 0.01 µM) | relative viability (Adavosertib + Crizotinib; first compound 0.03162 µM) | relative viability (Adavosertib + Crizotinib; first compound 0.1 µM) | relative viability (Adavosertib + Crizotinib; first compound 0.3162 µM) | relative viability (Adavosertib + Tozasertib; first compound 0.01 µM) | relative viability (Adavosertib + Tozasertib; first compound 0.03162 µM) | relative viability (Adavosertib + Tozasertib; first compound 0.1 µM) | relative viability (Adavosertib + Tozasertib; first compound 0.3162 µM)
EKVX | 0.941 | 0.966 | 0.989 | 1.07 | 0.729 | 0.77 | 0.679 | 0.651 | 0.44 | 0.448 | 0.433 | 0.437 | 1.13 | 0.952 | 0.776 | 1.06 | 0.424 | 0.451 | 0.436 | 0.469
NCI-H1915 | 1.11 | 1.12 | 1.14 | 1.17 | 0.677 | 0.606 | 0.69 | 0.586 | 0.97 | 1 | 1.05 | 0.985 | 0.941 | 0.812 | 0.981 | 1 | 0.433 | 0.441 | 0.509 | 0.524
LU99A | 0.575 | 0.656 | 0.499 | 0.417 | 0.314 | 0.282 | 0.307 | 0.298 | 0.341 | 0.303 | 0.354 | 0.241 | 0.529 | 0.584 | 0.561 | 0.461 | 0.284 | 0.273 | 0.263 | 0.273
LCLC-103H | 1.07 | 1.02 | 1.14 | 1.07 | 0.458 | 0.441 | 0.428 | 0.417 | 0.544 | 0.517 | 0.561 | 0.516 | 1.07 | 0.99 | 1.06 | 1.07 | 0.5 | 0.501 | 0.572 | 0.451
LK-2 | 0.761 | 0.742 | 0.522 | 0.424 | 0.17 | 0.208 | 0.207 | 0.216 | 0.549 | 0.622 | 0.676 | 0.59 | 0.278 | 0.249 | 0.188 | 0.224 | 0.172 | 0.2 | 0.171 | 0.19
SK-LU-1 | 1.19 | 1.02 | 0.77 | 0.334 | 0.394 | 0.324 | 0.296 | 0.182 | 0.649 | 0.532 | 0.456 | 0.242 | 0.837 | 0.844 | 0.553 | 0.325 | 0.371 | 0.321 | 0.302 | 0.174
NCI-H1755 | 0.997 | 0.956 | 0.992 | 0.997 | 0.662 | 0.731 | 0.754 | 0.666 | 0.433 | 0.451 | 0.4 | 0.326 | 0.885 | 0.882 | 0.911 | 0.739 | 0.649 | 0.581 | 0.682 | 0.535
NCI-H647 | 1.12 | 1.04 | 1.28 | 0.454 | 0.635 | 0.609 | 0.569 | 0.26 | 0.453 | 0.471 | 0.405 | 0.318 | 1.2 | 1.08 | 0.967 | 0.593 | 0.273 | 0.276 | 0.245 | 0.317
NCI-H1734 | 0.992 | 0.953 | 0.916 | 0.938 | 0.608 | 0.638 | 0.604 | 0.377 | 0.41 | 0.434 | 0.478 | 0.31 | 0.817 | 0.772 | 0.82 | 0.695 | 0.257 | 0.24 | 0.252 | 0.266
NCI-H727 | 0.334 | 0.249 | 0.311 | 0.32 | 0.599 | 0.546 | 0.523 | 0.575 | 0.525 | 0.341 | 0.359 | 0.366 | 0.804 | 0.994 | 0.737 | 0.871 | 0.674 | 0.504 | 0.546 | 0.641
NCI-H2009 | 1.23 | 1.24 | 1.24 | 1.2 | 0.698 | 0.644 | 0.651 | 0.366 | 0.766 | 0.847 | 0.68 | 0.395 | 0.995 | 1.05 | 1.03 | 1.04 | 0.787 | 0.749 | 1.05 | 0.749
LC-2-ad | 0.773 | 0.883 | 0.781 | 0.729 | 0.834 | 0.94 | 0.892 | 0.694 | 0.455 | 0.587 | 0.424 | 0.37 | 0.499 | 0.442 | 0.547 | 0.528 | 0.478 | 0.419 | 0.445 | 0.442
NCI-H2085 | 0.872 | 0.996 | 0.988 | 0.827 | 0.857 | 0.808 | 0.689 | 0.87 | 0.491 | 0.451 | 0.41 | 0.519 | 0.748 | 0.866 | 0.946 | 0.85 | 0.738 | 0.788 | 0.956 | 0.799
NCI-H661 | 0.609 | 0.648 | 0.463 | 0.417 | 0.762 | 0.723 | 0.685 | 0.284 | 0.33 | 0.415 | 0.352 | 0.322 | 1.08 | 1.1 | 1.13 | 1.04 | 0.353 | 0.36 | 0.339 | 0.349
H3255 | 0.967 | 1.01 | 0.993 | 0.957 | 0.506 | 0.654 | 0.584 | 0.539 | 0.502 | 0.452 | 0.447 | 0.402 | 0.87 | 1.04 | 1.04 | 0.936 | 0.63 | 0.721 | 0.421 | 0.559
NCI-H441 | 0.552 | 0.5 | 0.496 | 0.329 | 0.758 | 0.56 | 0.471 | 0.425 | 0.561 | 0.497 | 0.378 | 0.33 | 0.751 | 0.637 | 0.838 | 0.568 | 0.688 | 0.685 | 0.801 | 0.636
